Patent US20100196465A1, “STABLE PHARMACEUTICAL COMPOSITION OF A WATER-SOLUBLE VINORELBINE SALT” (Pierre Fabre Medicament, priority 2007, published 2010)

Assay: Stability test at 5° C. in a sealed package after 6 and 12 months (impurity content)
Format: physicochemical
Settings: external 20% humidity, % of the total weight of the composition
Description: The compositions as gelatin capsules are housed in a sealed package (T0) and stored at 5° C. with an external 20% humidity rate. Next, the impurity content (in % of the total weight of the composition) is dosed after 6 and 12 months (T6 and T12 respectively) and compared to that dosed beforehand at T0. The difference between the percentages at T6 and T0 and then T12 and T0 indicate the change in the impurity content.
It is compared with that obtained for freeze-dried vinorelbine ditartrate stored under the same conditions.
This operating procedure was applied in the following Examples 2 to 5.

Change in impurity content T0 to T12: T0 to T12: +0.79%
SMILES: CCC1=C[C@@H]2CN(C1)Cc1c([nH]c3ccccc13)[C@@](C(=O)OC)(c1cc3c(cc1OC)N(C)[C@H]1[C@@](O)(C(=O)OC)[C@H](OC(C)=O)[C@]4(CC)C=CCN5CC[C@]31[C@@H]54)C2 [Vinorelbine ditartrate, vinorelbine ditartrate]
